Assay in all cases: Drug affinity chromatography with c-ponatinib and LC-MS/MS (ponatinib interactome)
Format in all cases: binding

Assay [1] deals with T1, proteins of U2OS cell lysate (Homo sapiens, UniProt O00231).
T1 construct: Proteins enriched by c-ponatinib from U2OS cell lysate; endogenous in cells; host or cells: U2OS cell lysate
Particulars: PSMD11, 26S proteasome non-ATPase regulatory subunit 11. In a few lines: (§1)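 U2OS cell lysate in NP-40 lysis buffer (2 mg protein per pulldown) was incubated with amine-derivatized NHS beads for 2 h at 4 °C. Bound proteins were washed, eluted with 100 mM formic acid, reduced, alkylated and trypsin-digested, then identified by nano-UPLC–MS/MS on Orbitrap instruments with a 60 min gradient.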

The target in assay [2] is T2, proteins of U2OS cell lysate (Homo sapiens, UniProt O14974).
T2 construct: Proteins enriched by c-ponatinib from U2OS cell lysate; endogenous in cells; host or cells: U2OS cell lysate
Conditions: PPP1R12A, Protein phosphatase 1 regulatory subunit 12A. The gist of the method: as §1

Assay [3] addresses T3, proteins of U2OS cell lysate (Homo sapiens, UniProt O43707).
T3 construct: Proteins enriched by c-ponatinib from U2OS cell lysate; endogenous in cells; host or cells: U2OS cell lysate
Particulars: ACTN4, Alpha-actinin-4. The gist of the method: as §1

For assay [4], the target named is T4, proteins of U2OS cell lysate (Homo sapiens, UniProt O75821).
T4 construct: Proteins enriched by c-ponatinib from U2OS cell lysate; endogenous in cells; host or cells: U2OS cell lysate
Conditions: EIF3G, Eukaryotic translation initiation factor 3 subunit G. The gist of the method: as §1

In assay [5] the target is T5, proteins of U2OS cell lysate (Homo sapiens, UniProt O95819).
T5 construct: Proteins enriched by c-ponatinib from U2OS cell lysate; endogenous in cells; host or cells: U2OS cell lysate
Particulars: MAP4K4, Mitogen-activated protein kinase kinase kinase kinase 4. In a few lines: as §1

Assay [6] concerns the target T6, proteins of U2OS cell lysate (Homo sapiens, UniProt P07437).
T6 construct: Proteins enriched by c-ponatinib from U2OS cell lysate; endogenous in cells; host or cells: U2OS cell lysate
Conditions: TUBB;TUBB2A, Tubulin beta chain. In a few lines: as §1

Assay [7] addresses T7, proteins of U2OS cell lysate (Homo sapiens, UniProt P20700).
T7 construct: Proteins enriched by c-ponatinib from U2OS cell lysate; endogenous in cells; host or cells: U2OS cell lysate
Conditions: LMNB1, Lamin-B1. In a few lines:
as §1

The target of assay [8] is T8, proteins of U2OS cell lysate (Homo sapiens, UniProt P36542).
T8 construct: Proteins enriched by c-ponatinib from U2OS cell lysate; endogenous in cells; host or cells: U2OS cell lysate
Particulars: ATP5C1, ATP synthase subunit gamma, mitochondrial. The gist of the method:
as §1

Assay [9] addresses T9, proteins of U2OS cell lysate (Homo sapiens, UniProt P54760).
T9 construct: Proteins enriched by c-ponatinib from U2OS cell lysate; endogenous in cells; host or cells: U2OS cell lysate
Conditions: EPHB4, Ephrin type-B receptor 4. In a few lines: as §1

Assay [10] has as its target T10, proteins of U2OS cell lysate (Homo sapiens, UniProt P55036).
T10 construct: Proteins enriched by c-ponatinib from U2OS cell lysate; endogenous in cells; host or cells: U2OS cell lysate
Particulars: PSMD4, 26S proteasome non-ATPase regulatory subunit 4. In a few lines:
as §1

In assay [11] the target is T11, proteins of U2OS cell lysate (Homo sapiens, UniProt P55084).
T11 construct: Proteins enriched by c-ponatinib from U2OS cell lysate; endogenous in cells; host or cells: U2OS cell lysate
Conditions: HADHB, Trifunctional enzyme subunit beta, mitochondrial. The gist of the method: as §1

Assay [12] concerns the target T12, proteins of U2OS cell lysate (Homo sapiens, UniProt P57678).
T12 construct: Proteins enriched by c-ponatinib from U2OS cell lysate; endogenous in cells; host or cells: U2OS cell lysate
Particulars: GEMIN4, Gem-associated protein 4. In a few lines: as §1

Assay [13] has as its target T13, proteins of U2OS cell lysate (Homo sapiens, UniProt P62191).
T13 construct: Proteins enriched by c-ponatinib from U2OS cell lysate; endogenous in cells; host or cells: U2OS cell lysate
Particulars: PSMC1, 26S protease regulatory subunit 4. In a few lines:
as §1

Assay [14] addresses T14, proteins of U2OS cell lysate (Homo sapiens, UniProt P62258).
T14 construct: Proteins enriched by c-ponatinib from U2OS cell lysate; endogenous in cells; host or cells: U2OS cell lysate
Conditions: YWHAE, 14-3-3 protein epsilon. In a few lines:
as §1

In assay [15] the target is T15, proteins of U2OS cell lysate (Homo sapiens, UniProt Q09028).
T15 construct: Proteins enriched by c-ponatinib from U2OS cell lysate; endogenous in cells; host or cells: U2OS cell lysate
Conditions: RBBP4;RBBP7, Histone-binding protein RBBP4. In a few lines: as §1

In assay [16] the target is T16, proteins of U2OS cell lysate (Homo sapiens, UniProt Q13268).
T16 construct: Proteins enriched by c-ponatinib from U2OS cell lysate; endogenous in cells; host or cells: U2OS cell lysate
Particulars: DHRS2, Dehydrogenase/reductase SDR family member 2, mitochondrial. In a few lines: as §1

Assay [17] concerns the target T17, proteins of U2OS cell lysate (Homo sapiens, UniProt Q9NWB6).
T17 construct: Proteins enriched by c-ponatinib from U2OS cell lysate; endogenous in cells; host or cells: U2OS cell lysate
Particulars: ARGLU1, Arginine and glutamate-rich protein 1. In a few lines: as §1

Assay [18] deals with T18, proteins of U2OS cell lysate (Homo sapiens, UniProt P09493).
T18 construct: Proteins enriched by c-ponatinib from U2OS cell lysate; endogenous in cells; host or cells: U2OS cell lysate
Conditions: captured protein TPM1, Rank 202. In a few lines:
as §1

Assay [19] addresses T19, proteins of U2OS cell lysate (Homo sapiens, UniProt P10606).
T19 construct: Proteins enriched by c-ponatinib from U2OS cell lysate; endogenous in cells; host or cells: U2OS cell lysate
Conditions: captured protein COX5B, Rank 183. The gist of the method:
as §1

The record followed here is publication PMC6120666 (The EMBO Journal, 2018).

T4 sequence (O75821 whole entry): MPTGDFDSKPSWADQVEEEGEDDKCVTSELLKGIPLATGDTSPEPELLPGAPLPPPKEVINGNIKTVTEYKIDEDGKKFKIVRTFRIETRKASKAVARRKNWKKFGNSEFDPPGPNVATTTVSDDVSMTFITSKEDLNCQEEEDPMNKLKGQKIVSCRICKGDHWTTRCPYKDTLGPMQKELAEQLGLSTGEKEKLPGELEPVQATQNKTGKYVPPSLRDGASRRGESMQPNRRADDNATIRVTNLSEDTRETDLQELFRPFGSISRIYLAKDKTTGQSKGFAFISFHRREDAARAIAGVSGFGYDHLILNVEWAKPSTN
T3 sequence (O43707 whole entry): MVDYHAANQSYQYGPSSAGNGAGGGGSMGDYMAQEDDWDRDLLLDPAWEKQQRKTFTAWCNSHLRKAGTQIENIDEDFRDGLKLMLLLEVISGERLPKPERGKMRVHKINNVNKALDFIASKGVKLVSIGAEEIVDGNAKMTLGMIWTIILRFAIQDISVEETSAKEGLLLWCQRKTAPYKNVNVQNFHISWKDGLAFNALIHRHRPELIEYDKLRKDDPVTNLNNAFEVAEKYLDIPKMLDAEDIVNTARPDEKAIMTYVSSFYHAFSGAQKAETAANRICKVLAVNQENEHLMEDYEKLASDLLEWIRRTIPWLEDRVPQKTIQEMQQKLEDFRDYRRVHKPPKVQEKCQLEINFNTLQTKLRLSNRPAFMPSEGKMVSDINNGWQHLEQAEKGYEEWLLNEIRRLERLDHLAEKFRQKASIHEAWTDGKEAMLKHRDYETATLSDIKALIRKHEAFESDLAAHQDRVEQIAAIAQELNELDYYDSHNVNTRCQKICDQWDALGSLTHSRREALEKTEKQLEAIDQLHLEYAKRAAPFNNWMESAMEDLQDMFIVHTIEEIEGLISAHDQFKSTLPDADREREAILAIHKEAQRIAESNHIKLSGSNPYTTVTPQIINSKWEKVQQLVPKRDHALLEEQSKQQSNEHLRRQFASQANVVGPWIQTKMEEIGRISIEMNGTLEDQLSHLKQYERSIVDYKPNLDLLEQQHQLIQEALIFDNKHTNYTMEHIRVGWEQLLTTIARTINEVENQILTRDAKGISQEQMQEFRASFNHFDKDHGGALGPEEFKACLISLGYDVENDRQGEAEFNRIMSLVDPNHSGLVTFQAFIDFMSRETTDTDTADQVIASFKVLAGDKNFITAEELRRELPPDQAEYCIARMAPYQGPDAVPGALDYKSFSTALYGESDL
T6 sequence (P07437 whole entry): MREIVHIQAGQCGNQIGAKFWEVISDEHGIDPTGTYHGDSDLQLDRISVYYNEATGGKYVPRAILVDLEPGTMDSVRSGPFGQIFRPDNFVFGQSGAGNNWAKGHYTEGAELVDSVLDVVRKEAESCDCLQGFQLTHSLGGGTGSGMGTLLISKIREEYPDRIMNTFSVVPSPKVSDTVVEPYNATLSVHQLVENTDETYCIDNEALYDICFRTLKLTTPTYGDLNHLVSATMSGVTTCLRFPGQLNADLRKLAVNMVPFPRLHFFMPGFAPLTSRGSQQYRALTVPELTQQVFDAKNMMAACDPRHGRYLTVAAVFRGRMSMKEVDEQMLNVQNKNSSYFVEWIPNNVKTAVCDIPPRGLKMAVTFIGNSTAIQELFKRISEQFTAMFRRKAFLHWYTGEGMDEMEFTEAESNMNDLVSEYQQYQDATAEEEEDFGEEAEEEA
T5 sequence (O95819 whole entry): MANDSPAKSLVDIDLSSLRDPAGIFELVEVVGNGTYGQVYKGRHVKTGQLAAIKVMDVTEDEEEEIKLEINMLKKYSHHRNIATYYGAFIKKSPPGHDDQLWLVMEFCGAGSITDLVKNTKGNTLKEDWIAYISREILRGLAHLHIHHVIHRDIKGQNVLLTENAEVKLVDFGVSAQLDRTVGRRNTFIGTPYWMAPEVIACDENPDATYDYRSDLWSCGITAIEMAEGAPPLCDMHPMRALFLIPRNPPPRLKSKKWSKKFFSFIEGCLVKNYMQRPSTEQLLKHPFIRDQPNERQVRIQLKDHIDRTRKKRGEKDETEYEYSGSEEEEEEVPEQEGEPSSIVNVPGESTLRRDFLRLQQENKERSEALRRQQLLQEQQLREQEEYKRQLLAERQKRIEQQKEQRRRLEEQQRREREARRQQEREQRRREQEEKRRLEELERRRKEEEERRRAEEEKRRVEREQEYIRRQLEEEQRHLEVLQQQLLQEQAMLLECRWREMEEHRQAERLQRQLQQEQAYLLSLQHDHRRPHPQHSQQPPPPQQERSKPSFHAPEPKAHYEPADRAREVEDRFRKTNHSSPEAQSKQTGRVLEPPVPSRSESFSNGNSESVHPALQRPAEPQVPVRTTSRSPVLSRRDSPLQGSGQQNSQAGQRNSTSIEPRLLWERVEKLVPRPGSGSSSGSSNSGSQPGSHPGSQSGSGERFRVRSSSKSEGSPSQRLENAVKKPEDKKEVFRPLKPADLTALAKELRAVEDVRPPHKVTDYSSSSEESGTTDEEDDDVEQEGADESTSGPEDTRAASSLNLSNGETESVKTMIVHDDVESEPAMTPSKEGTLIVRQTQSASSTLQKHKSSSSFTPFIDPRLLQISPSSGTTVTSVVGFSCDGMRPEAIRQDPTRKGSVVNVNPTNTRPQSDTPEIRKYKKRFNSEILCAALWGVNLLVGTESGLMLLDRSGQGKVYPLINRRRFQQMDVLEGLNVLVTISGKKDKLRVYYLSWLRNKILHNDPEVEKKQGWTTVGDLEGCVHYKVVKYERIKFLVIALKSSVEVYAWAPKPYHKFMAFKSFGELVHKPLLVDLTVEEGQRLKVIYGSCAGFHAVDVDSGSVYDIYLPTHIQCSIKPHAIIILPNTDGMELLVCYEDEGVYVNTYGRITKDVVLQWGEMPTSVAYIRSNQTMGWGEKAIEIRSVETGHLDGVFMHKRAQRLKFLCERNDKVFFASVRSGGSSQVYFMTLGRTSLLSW
T7 sequence (P20700 whole entry): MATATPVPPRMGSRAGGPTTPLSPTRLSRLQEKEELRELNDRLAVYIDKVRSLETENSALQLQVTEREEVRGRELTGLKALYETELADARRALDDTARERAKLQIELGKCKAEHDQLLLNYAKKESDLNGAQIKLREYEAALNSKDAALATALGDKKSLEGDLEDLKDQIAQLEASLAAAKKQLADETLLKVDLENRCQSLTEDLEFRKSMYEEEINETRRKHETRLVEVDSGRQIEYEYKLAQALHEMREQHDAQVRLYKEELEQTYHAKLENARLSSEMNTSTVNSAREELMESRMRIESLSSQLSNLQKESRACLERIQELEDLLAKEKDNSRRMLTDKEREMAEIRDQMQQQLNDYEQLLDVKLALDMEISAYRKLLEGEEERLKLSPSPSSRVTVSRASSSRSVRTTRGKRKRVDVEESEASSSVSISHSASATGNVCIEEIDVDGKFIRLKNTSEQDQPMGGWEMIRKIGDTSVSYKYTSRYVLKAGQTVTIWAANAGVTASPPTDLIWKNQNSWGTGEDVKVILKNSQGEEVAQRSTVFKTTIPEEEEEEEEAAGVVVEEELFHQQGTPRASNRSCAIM
T10 sequence (P55036 whole entry): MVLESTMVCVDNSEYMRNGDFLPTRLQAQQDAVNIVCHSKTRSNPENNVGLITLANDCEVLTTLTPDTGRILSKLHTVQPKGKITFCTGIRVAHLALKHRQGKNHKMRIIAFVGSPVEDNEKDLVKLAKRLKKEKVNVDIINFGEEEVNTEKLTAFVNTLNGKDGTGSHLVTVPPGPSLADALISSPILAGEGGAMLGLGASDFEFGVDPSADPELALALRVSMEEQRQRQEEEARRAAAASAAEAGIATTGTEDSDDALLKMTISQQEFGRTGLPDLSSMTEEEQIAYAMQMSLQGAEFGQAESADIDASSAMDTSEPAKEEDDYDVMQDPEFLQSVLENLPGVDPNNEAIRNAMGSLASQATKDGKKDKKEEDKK
T19 sequence (P10606 32-129): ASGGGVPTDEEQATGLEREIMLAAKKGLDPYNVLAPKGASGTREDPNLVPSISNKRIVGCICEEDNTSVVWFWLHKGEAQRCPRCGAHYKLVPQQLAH
T8 sequence (P36542 26-298): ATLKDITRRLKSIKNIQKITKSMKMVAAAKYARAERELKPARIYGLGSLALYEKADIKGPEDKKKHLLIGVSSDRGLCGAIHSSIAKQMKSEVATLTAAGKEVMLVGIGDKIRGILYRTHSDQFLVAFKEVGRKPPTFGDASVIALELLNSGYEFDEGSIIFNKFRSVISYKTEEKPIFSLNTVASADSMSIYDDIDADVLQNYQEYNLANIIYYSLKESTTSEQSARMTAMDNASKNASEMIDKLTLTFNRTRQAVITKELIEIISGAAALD
T14 sequence (P62258 whole entry): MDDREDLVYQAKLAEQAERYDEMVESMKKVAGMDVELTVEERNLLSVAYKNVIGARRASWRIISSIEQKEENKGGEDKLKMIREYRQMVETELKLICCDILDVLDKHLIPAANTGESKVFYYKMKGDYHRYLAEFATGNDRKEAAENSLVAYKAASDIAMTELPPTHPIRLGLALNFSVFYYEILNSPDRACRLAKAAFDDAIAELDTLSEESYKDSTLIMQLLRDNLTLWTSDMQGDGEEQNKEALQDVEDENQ
T16 sequence (Q13268 24-280): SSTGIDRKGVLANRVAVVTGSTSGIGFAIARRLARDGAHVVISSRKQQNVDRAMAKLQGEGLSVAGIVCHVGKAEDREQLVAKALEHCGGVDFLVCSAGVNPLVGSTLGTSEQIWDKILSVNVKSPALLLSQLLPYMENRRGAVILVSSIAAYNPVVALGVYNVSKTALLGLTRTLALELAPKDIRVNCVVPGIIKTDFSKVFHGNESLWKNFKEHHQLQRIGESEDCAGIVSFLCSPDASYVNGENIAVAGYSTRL

For the compound `Cc1ccc(C(=O)Nc2ccc(CN3CCN(C)CC3)c(C(F)(F)F)c2)cc1C#Cc1cnc2cccnn12` [PON], the “Average LFQ PON_WT” value in assay [1] was 21.0044; in assay [2], 20.7589; in [3], 19.9578; in assay [4] it was 21.2492; in assay [5] it was 26.8473; in [6] it was 24.4278. Besides, the “Average LFQ PON_WT” value is 25.3205 in assay [7]; 21.058 in assay [8]; 25.577 in assay [9]; 21.0725 in [10]; 23.6834 in [11]; 20.1071 in assay [12]. Besides, the “Average LFQ PON_WT” value in assay [13] is 23.3461; in [14] it was 21.3893; in [15], 21.1647; in assay [16], 24.0178; in assay [17], 21.1214.

`Cc1ccc(C(=O)Nc2ccc(CN3CCN(CCCN)CC3)c(C(F)(F)F)c2)cc1C#Cc1cnc2cccnn12` [c-ponatinib, reference compound]: the “Average LFQ intensity” value worked out at 21.8321 in [18] and 22.1378 in [19].
